# Laboratory results published in patent publication EP4755886A1 (Chengdu Chipscreen Pharmaceutical Ltd., priority 2023, dated 2025).
# System: MTAP^-/- HCT-116 cells
# Assay: Cell proliferation (MTS), MTAP-/- HCT-116
# Type: cell-based, human
# Conditions: Homo sapiens, 240 h; MTAP-/- HCT-116, 10 days with compound, MTS reading; read-out: IC50 HCT116 MTAP-/-
# Description: The colon cancer cell strain HCT-116 (purchased from Nanjing Cobioer) was co-transfected with the gene editing tool CRISPR/Cas9 and sgRNA, and the MTAP^-/- HCT-116 cell strain with biallelic inactivation of MTAP was obtained by assays such as Western Blotting and Sanger sequencing. The MTAP^-/- HCT-116 cell strain was used for compound selectivity screening and evaluation based on the synergistic mechanism of MTAP deletion and PRMT5, including a symmetric dimethylarginine (SDMA) level test, a cell proliferation test, and the like.
# On day 0, MTAP^-/- HCT-116 cells or wild-type HCT-116 cells were added to a 96-well cell culture plate (Corning, 3599) at 100 cells/well, and the plate was incubated in an incubator at 37 °C with 5% CO2. The compound was diluted in a 3-fold gradient with DMSO (Sigma, D5879) (initial concentration: 20 µM, 3-fold dilution, 8 concentration points in total). On day 1, the compound was diluted to multiple concentration points, and the cells were treated separately and incubated in the incubator at 37 °C with 5% CO2 for another 10 days. On Day 11, 20 µL of MTS (CellTiter 96® AQueous One Solution Cell Proliferation Assay) (Promega, G3581) was added to each well. […] In the formula, Y represents the inhibition rate, X represents the logarithm of the compound concentration, Top represents the maximum response (the inhibition rate at the maximum compound concentration), Bottom represents the baseline response (the inhibition rate where the compound concentration was 0), Hill Slope represents the slope of the IC50 curve, and IC50 represents the half maximal inhibitory concentration.
row,IC50,Compound
1,2.8 nM,"Cc1nn(C)cc1C#Cc1ccc2c(c1)OCC2N(C)C(=O)c1cc2c(cc1Cl)nc(N)c1cnn(C)c12 (centres unmarked) [Compound 26, 4-amino-7-chloro-N-(6-((1,3-dimethyl-1H-pyrazol-4-yl)ethynyl)-2,3-dihydrobenzofuran-3-yl)-N,1-dimethyl-1H-pyrazolo[4,3-c]quinoline-8-carboxamide]"
2,1 nM,"CN1CCn2c(C#Cc3ccc4c(c3)OC[C@H]4N(C)C(=O)c3cc4c(cc3Cl)nc(N)c3cnn(C)c34)cnc2C1 [Compound 51A, (S)-4-amino-7-chloro-N,1-dimethyl-N-(6-((7-methyl-5,6,7,8-tetrahydroimidazo[1,2-a]pyrazin-3-yl)ethynyl)-2,3-dihydrobenzofuran-3-yl)-1H-pyrazolo[4,3-c]quinoline-8-carboxamide]"
3,6 nM,"CN(C(=O)c1cc2c(cc1F)nc(N)c1cnn(C)c12)C1COCc2cc(C#Cc3cnn(C)c3)ccc21 (centres unmarked) [Compound 72, 4-amino-7-fluoro-N,1-dimethyl-N-(7-((1-methyl-1H-pyrazol-4-yl)ethynyl)isochroman-4-yl)-1H-pyrazolo[4,3-c]quinoline-8-carboxamide]"
4,11 nM,"CN(C(=O)c1cc2c3c(c(N)nc2cc1Cl)COC3)[C@@H]1COc2cc(C#Cc3cnn(C(F)F)c3)ccc21 [Compound 73A, (S)-4-amino-7-chloro-N-(6-((1-(difluoromethyl)-1H-pyrazol-4-yl)ethynyl)-2,3-dihydrobenzofuran-3-yl)-N-methyl-1,3-dihydrofuro[3,4-c]quinoline-8-carboxamide]"

# Second part, the molecule before the results:
row,Compound,IC50
1,"CC(C)n1cc(C#Cc2ccc3c(c2)OCC3N(C)C(=O)c2cc3c(cc2Cl)nc(N)c2cnn(C)c23)cn1 (centres unmarked) [Compound 14, 4-amino-7-chloro-N-(6-((1-isopropyl-1H-pyrazol-4-yl)ethynyl)-2,3-dihydrobenzof uran-3-yl)-N,1-dimethyl-1H-pyrazolo[4,3-c]quinoline-8-carboxamide]",9 nM
2,"CCn1cc(C#Cc2ccc3c(c2)OCC3N(C)C(=O)c2cc3c(cc2Cl)nc(N)c2cnn(C)c23)cn1 (centres unmarked) [Compound 15, 4-amino-7-chloro-N-(6-((1-ethyl-1H-pyrazol-4-yl)ethynyl)-2,3-dihydrobenzofuran-3-yl)-N,1-dimethyl-1H-pyrazolo[4,3-c]quinoline-8-carboxamide]",4.8 nM
3,"Cc1nn(C)cc1C#Cc1ccc2c(c1)OC[C@H]2N(C)C(=O)c1cc2c(cc1Cl)nc(N)c1cnn(C)c12 [Compound 26A, (S)-4-amino-7-chloro-N-(6-((1,3-dimethyl-1H-pyrazol-4-yl)ethynyl)-2,3-dihydrobenzofuran-3-yl)-N,1-dimethyl-1H-pyrazolo[4,3-c]quinoline-8-carboxamide]",0.9 nM
4,"CCN(C(=O)c1cc2c(cc1Cl)nc(N)c1cnn(C)c12)C1COc2cc(C#Cc3cnn(C)c3)ccc21 (centres unmarked) [Compound 28, 4-amino-7-chloro-N-ethyl-1-methyl-N-(6-((1-methyl-1H-pyrazol-4-yl)ethynyl)-2,3-dihydrobenzofuran-3-yl)-1H-pyrazolo[4,3-c]quinoline-8-carboxamide]",2.3 nM
5,"CN(C(=O)c1cc2c3c(c(N)nc2cc1F)COC3)[C@@H]1COc2cc(C#Cc3cnn(C)c3)ccc21 [Compound 39A, (S)-4-amino-7-fluoro-N-methyl-N-(6-((1-methyl-1H-pyrazol-4-yl)ethynyl)-2,3-dihydrobenzofuran-3-yl)-1,3-dihydrofuro[3,4-c]quinoline-8-carboxamide]",11 nM
6,"CN(C(=O)c1cc2c(cc1F)nc(N)c1cnn(C)c12)[C@@H]1COc2cc(C#Cc3cccnc3F)ccc21 [Compound 54A, (S)-4-amino-7-fluoro-N-(6-((2-fluoropyridin-3-yl)ethynyl)-2,3-dihydrobenzofuran-3-yl)-N,1-dimethyl-1H-pyrazolo[4,3-c]quinoline-8-carboxamide]",5.5 nM
7,"Cc1ncccc1C#Cc1ccc2c(c1)OC[C@H]2N(C)C(=O)c1cc2c(cc1Cl)nc(N)c1cnn(C)c12 [Compound 64A, (S)-4-amino-7-chloro-N,1-dimethyl-N-(6-((2-methylpyridin-3-yl)ethynyl)-2,3-dihydrobenzofuran-3-yl)-1H-pyrazolo[4,3-c]quinoline-8-carboxamide]",3 nM
